Data published in ChEMBL document CHEMBL1140455, “On the search of new I2-IBS aliphatic ligands: bis-guanidino carbonyl derivatives” (Bioorg Med Chem Lett, 2007).

Experiment: Displacement of [3H]2-BFI from I2-IBS in human frontal cortex membranes
Type: cell membranes, Membrane

Structure (SMILES) | Log Ki
N=C(N)NC(=O)CCCCCCCCC(=O)NC(=N)N | -6.11
N=C(N)NC(=O)CCCCCCCCCC(=O)NC(=N)N | -5.2
N=C(N)NC(=O)CCCCCCCCCCC(=O)NC(=N)N | -5.69
N=C(N)NCCCCCCCCCCCCNC(=N)N | -7.48
c1ccc2c(c1)OCC(C1=NCCN1)O2 (stereo not drawn) [IDAZOXAN] | -7.43

Further lines, results first:

Log Ki | Structure (SMILES)
-5.06 | N=C(N)NC(=O)CCCCCCCCCCCC(=O)NC(=N)N
-5.91 | N=C(N)NC(=O)CCCCCCCCCCCCC(=O)NC(=N)N
-5.7 | N=C(N)NC(=O)CCCCCCCCCCCCCCC(=O)NC(=N)N
